# Measurements taken from patent US7452997B2 (priority 2004, dated 2008).
# Where two headings read alike, the source gives them in different places.
# Assays:
# human CB1 receptor = target: T1, human CB1 receptor (Homo sapiens, UniProt P21554); experiment: biochemical; format: binding
# T1 construct: expressed in transfected cells; host or cells: SK-N-MC cells, stably transfected with pcDNA3 CB-1 (human); semi-purified membrane pellet
# Method: (§1) Binding Assay for CB1 or CB2 Agonists or Inverse Agonists
# (§2) The human CB1 and CB2 receptors were stably expressed in SK-N-MC cells transfected with pcDNA3 CB-1 (human) or pcDNA3 CB-2 (human). The cells were grown in T-180 cell culture flasks under standard cell culture conditions at 37° C. in a 5% CO2 atmosphere. The cells were harvested by trysinization and homogenized in a homogenization buffer (10 mM Tris, 0.2 mM MgCl2, 5 mM KCl, with protease inhibitors aprotinin, leupeptin, pepstatin A and bacitracin) and centrifuged (2000 g). The supernatant was then centrifuged in 2M sucrose (31,300 g) to produce a semi-purified membrane pellet. The pellet was resuspended in homogenization and store at −80° C.
# On the day of the assay, the pellet was thawed on ice and diluted in assay buffer (50 mM Tris-HCl, 5 mM MgCl2, 2.5 mM EDTA, 0.5 mg/mL fatty acid free bovine serum albumin, pH 7.5). […] The plate was covered and incubated for 90 minutes at 30° C. The contents were then aspirated onto a Packard […] GF/C filter bottom plate prewet with 0.5% polyethyleneimine. The wells of the polypropylene plate were rinsed and aspirated seven times with a 0.9% saline-0.5% TWEEN 20 solution. The […] plate was dried, a scintillation cocktail was added to each well and the counts representing binding were quantitated in a TOPCOUNT scintillation counter.
# (§3) The IC50 binding values for compounds tested were calculated by linear regression and were obtained from studies in which varying compound concentrations were used.
# human CB2 receptor = human CB2 receptor (Homo sapiens, UniProt P34972); experiment: Binding assay, cannabinoid CB2 receptor ([3H]-CP-55,940 displacement); conditions: SK-N-MC cell membranes, radioligand CP-55,940 0.2 nM
# Chain of human CB2 receptor (P34972 whole entry): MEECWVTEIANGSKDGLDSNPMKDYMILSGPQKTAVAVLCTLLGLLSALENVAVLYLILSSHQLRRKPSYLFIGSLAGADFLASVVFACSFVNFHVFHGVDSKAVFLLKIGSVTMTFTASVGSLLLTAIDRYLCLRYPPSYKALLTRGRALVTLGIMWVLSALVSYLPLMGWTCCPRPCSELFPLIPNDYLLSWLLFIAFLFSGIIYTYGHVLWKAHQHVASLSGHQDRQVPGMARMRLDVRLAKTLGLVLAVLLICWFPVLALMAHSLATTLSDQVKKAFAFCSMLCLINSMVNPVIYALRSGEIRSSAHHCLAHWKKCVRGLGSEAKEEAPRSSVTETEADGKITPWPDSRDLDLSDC
# Method: as §1, §2
# On the day of the assay, the pellet was thawed on ice and diluted in assay buffer (50 mM Tris-HCl, 5 mM MgCl2, 2.5 mM EDTA, 0.5 mg/mL fatty acid free bovine serum albumin, pH 7.5). The diluted membrane was added with buffer, test compound or standard and the radioligand [H]^3+-CP-55,940_(0.2 nM) to the wells of a 96-well polypropylene plate. Non-specific binding was measured in wells containing 10 uM WIN 55,212. The plate was covered and incubated for 90 minutes at 30° C. The contents were then aspirated onto a Packard UNIFILTER GF/C filter bottom plate prewet with 0.5% polyethyleneimine. The wells of the polypropylene plate were rinsed and aspirated seven times with a 0.9% saline-0.5% TWEEN 20 solution. The UNIFILTER plate was dried, a scintillation cocktail was added to each well and the counts representing binding were quantitated in a TOPCOUNT scintillation counter.
# as §3
# [1] = Cannabinoid CB2 Receptor Binding IC50, human CB2 receptor
# [2] = human CB1 receptor, SK-N-MC cell membranes, radioligand CP-55,940 0.2 nM, read-out: Cannabinoid CB1 Receptor Binding IC50
# [3] = human CB2 receptor, read-out: Cannabinoid CB2 Receptor Binding IC50
# T1 sequence (P21554 whole entry): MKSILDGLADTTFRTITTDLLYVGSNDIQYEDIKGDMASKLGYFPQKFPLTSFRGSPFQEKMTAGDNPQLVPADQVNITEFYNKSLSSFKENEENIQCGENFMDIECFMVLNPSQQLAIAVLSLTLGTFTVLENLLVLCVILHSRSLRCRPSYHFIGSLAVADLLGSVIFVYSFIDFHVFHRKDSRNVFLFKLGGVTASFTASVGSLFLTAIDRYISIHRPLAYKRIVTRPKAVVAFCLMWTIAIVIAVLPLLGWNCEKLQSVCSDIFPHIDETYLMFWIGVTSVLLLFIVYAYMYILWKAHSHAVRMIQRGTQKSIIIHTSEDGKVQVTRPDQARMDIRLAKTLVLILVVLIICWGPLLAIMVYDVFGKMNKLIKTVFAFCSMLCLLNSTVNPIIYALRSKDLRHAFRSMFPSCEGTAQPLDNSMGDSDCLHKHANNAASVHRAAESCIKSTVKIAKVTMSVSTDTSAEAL
Structure (SMILES),IC50 (human CB1 receptor) [nM],IC50 (human CB2 receptor; [1]) [nM],IC50 (human CB1 receptor; [2]) [nM],IC50 (human CB2 receptor; [3]) [nM]
CCOC(=O)C1CCCc2c1c(C(=O)NC(C)C13CC4CC(CC(C4)C1)C3)nn2C1CCCCC1 (centres unmarked) [compound 72],8400,4100,,
O=C(NC(Cc1ccc(OCc2ccccc2)cc1)C(=O)O)c1nn(C2CCCCC2)c2c1CCCC2 (centres unmarked) [compound 78],4600,1210,,
C[C@H]1C(NC(=O)c2nn(C3CCCCC3)c3c2CCCC3)C[C@@H]2C[C@H]1C2(C)C (some centres unmarked) [compound 252],40,48,,
C[C@H](NC(=O)c1nn(C2CCCCC2)c2c1CCCC2)C12CC3CC(CC(C3)C1)C2 [compound 213],950,200,,
C[C@H](NC(=O)c1nn(C2CCCCC2)c2c1CCCC2)c1ccccc1 [compound 196],125,120,,
COc1ccccc1CCNC(=O)c1nn(-c2ccccc2)c2c1CCCC2 [compound 238],,,25100,3720
CC(NC(=O)c1nn(C2CCCCC2)c2c1CCCC2)C1CCCCCC1 (centres unmarked) [compound 246],2270,90,,
CS(=O)(=O)NC1CCc2c(c(C(=O)NC3C4CC5CC(C4)CC3C5)nn2C2CCCCC2)C1 (centres unmarked) [compound 104],17100,200,,
CCOC(=O)[C@H]1C2CCC(C2)[C@H]1NC(=O)C(C)(C)Cc1nn(C2CCCCC2)c2c1CCCC2 (some centres unmarked) [compound 281],19700,16500,,
CCOC(=O)C1CCc2nn(C3CCCCC3)c(C(=O)NC3C4CC5CC(C4)CC3C5)c2C1 (centres unmarked) [compound 221],3290,460,,
"CC12CCC(C1)C(C)(C)C2NC(=O)c1nn(C2CCCCC2)c2c1CC(N)CC2 (centres unmarked) [Cpd 92, 5-amino-1-cyclohexyl-4,5,6,7-tetrahydro-1H-indazole-3-carboxylic acid (1,3,3-trimethyl-bicyclo[2.2.1]hept-2-yl)-amide]",1600,90,,
O=C(NN1CCCCCC1)c1nn(Cc2ccccc2)c2c1CCCC2 [compound 41],49,34.8,,
COC(=O)C(Cc1ccc(O)cc1)NC(=O)c1c2c(nn1-c1ccc(OC)cc1)CCCC2 (centres unmarked) [compound 6],6750,367,,
CCOC(=O)[C@H]1CCC[C@H]1NC(=O)c1nn(C2CCCCC2)c2c1CCCC2 [compound 58],736,170,,
O=C(N[C@@H]1CCCC[C@@H]1CO)c1nn(C2CCCCC2)c2c1CCCC2 [compound 48],249,55.3,,
CC(NC(=O)c1nn(-c2ccc(Cl)cc2Cl)c2c1CCCC2)C12CC3CC(CC(C3)C1)C2 (centres unmarked) [compound 283],100,100,,
COc1ccccc1CCNC(=O)c1nn(Cc2ccccc2)c2c1CCCC2 [compound 237],890,151,,
"O=C(N[C@H]1CCCC[C@H]1CO)c1nn(C2CCCCC2)c2c1CCCC2Cl (stereo partly drawn) [Cpd 60, 7-chloro-1-cyclohexyl-4,5,6,7-tetrahydro-1H-indazole-3-carboxylic acid [(1S,2R)-2-hydroxymethyl-cyclohexyl]-amide]",5230,515,,
Cc1ccc(-n2nc(C(=O)NC3C4(C)CCC(C4)C3(C)C)c3c2CCCC3)cc1 (centres unmarked) [compound 11],285,40.6,,
CC12CCC(C1)C(C)(C)C2NC(=O)c1nn(-c2ccc(F)cc2)c2c1CCCC2C1CCCCC1 (centres unmarked) [compound 24],3810,6820,,
CC(NC(=O)c1nn(C2CCCCC2)c2c1CC(=O)CC2)C12CC3CC(CC(C3)C1)C2 (centres unmarked) [compound 97],9700,30,,
O=C(Nc1nn(C2CCCCC2)c2c1CCCC2)c1cccc2ccccc12 [compound 181],300,1600,,
CCOC(=O)[C@H]1C2CCC(C2)[C@H]1NC(=O)c1nn(-c2ccc(Cl)cc2Cl)c2c1CCCC2 (some centres unmarked) [compound 130],400,5,,
COC1CCCc2c(C(=O)NC(C)C34CC5CC(CC(C5)C3)C4)nn(C3CCCCC3)c21 (centres unmarked) [compound 161],5230,775,,
CCOC(=O)C1C2CCC(C2)C1NC(=O)c1nn(-c2ccc(F)cc2)c2c1CCCC2 (centres unmarked) [compound 23],1800,100,,

Structure (SMILES),IC50 (human CB1 receptor) [nM],IC50 (human CB2 receptor; [1]) [nM],IC50 (human CB1 receptor; [2]) [nM],IC50 (human CB2 receptor; [3]) [nM]
CC(C)(C)OC(=O)NC1CCc2c(c(C(=O)NC3C4CC5CC(C4)CC3C5)nn2C2CCCCC2)C1 (centres unmarked) [compound 85],600,82,,
O=C(NCc1cccnc1)c1nn(C2CCCCC2)c2c1CCCC2 [compound 173],444,526,,
CC(NC(=O)c1nn(-c2ccc(F)cc2)c2c1CCCC2)C1C2CC3CC(C2)CC1C3 (centres unmarked) [compound 22],1030,143,,
O=C(NCC12CC3CC(CC(C3)C1)C2)c1nn(-c2ccc(F)cc2)c2c1CCCC2CCc1ccccc1 (centres unmarked) [compound 152],340,200,,
CCOC(=O)C1CC=CCC1NC(=O)c1nn(Cc2ccccc2)c2c1CCCC2 (centres unmarked) [compound 119],6,10,,
CCOC(=O)C1CCCc2c1c(C(=O)NC1C3CC4CC(C3)CC1C4)nn2Cc1ccccc1 (centres unmarked) [compound 158],13,9,,
COC1CCCc2c(C(=O)NC3C4CC5CC(C4)CC3C5)nn(C3CCCCC3)c21 (centres unmarked) [compound 162],,,635,110
O=C(NC1C2CC3CC(C2)CC1C3)c1nn(C2CCCCC2)c2c1CC(NC(=O)N1CCOCC1)CC2 (centres unmarked) [compound 90],1840,1120,,
CCOC(=O)C1CCc2nn(C3CCCCC3)c(C(=O)NC(C)C34CC5CC(CC(C5)C3)C4)c2C1 (centres unmarked) [compound 190],1620,4500,,
CC(NC(=O)c1nn(Cc2ccccc2)c2c1CCCC2)C12CC3CC(CC(C3)C1)C2 (centres unmarked) [compound 39],9,6,,
CCOC(=O)[C@H]1CCCC[C@@H]1NC(=O)c1nn(C2CCCCC2)c2c1CCCC2 [compound 59],340,70,,
CCOC(=O)N1CCC(NC(=O)c2nn(Cc3ccccc3)c3c2CCCC3)CC1 [compound 171],640,300,,
CCOC(=O)[C@H]1C2C=CC(C2)[C@H]1NC(=O)c1nn(C2CCCCC2)c2c1CCCC2 (some centres unmarked) [compound 279],3800,830,,
O=C(NC1CC2CCC1C2)c1nn(-c2ccc(F)cc2)c2c1CCCC2 (centres unmarked) [compound 20],169,35.2,,
"CC(C)(Cc1nn(C2CCCCC2)c2c1CCCC2)C(=O)NC1C2CC3CC(C2)CC1C3 (centres unmarked) [Cpd 66, N-adamantan-2-yl-3-(1-cyclohexyl-4,5,6,7-tetrahydro-1H-indazol-3-yl)-2,2-dimethyl-propionamide]",3590,1400,,
CCOC(=O)[C@H]1C2C=CC(C2)[C@H]1NC(=O)c1nn(Cc2ccccc2)c2c1CCCC2 (some centres unmarked) [compound 276],135,250,,
CCOC(=O)[C@@H]1C2C=CC(C2)[C@@H]1NC(=O)c1c2c(nn1Cc1ccccc1)CCCC2 (some centres unmarked) [compound 277],1300,3300,,
"O=C(NC(c1ccccc1)C1CCCCC1)c1nn(C2CCCCC2)c2c1CCCC2 (centres unmarked) [Cpd 331, 1-cyclohexyl-4,5,6,7-tetrahydro-1H-indazole-3-carboxylic acid (cyclohexyl-phenyl)methylamide]",3000,98,,
CCOC(=O)[C@@H]1CCCC[C@H]1NC(=O)c1nn(Cc2ccccc2)c2c1CCCC2 [compound 272],86,70,,
CCOC(=O)[C@H]1C2CCC(C2)[C@H]1NC(=O)CCc1nn(C2CCCCC2)c2c1CCCC2 (some centres unmarked) [compound 54],11400,6050,,
CC(NC(=O)CCc1nn(C2CCCCC2)c2c1CCCC2)C12CC3CC(CC(C3)C1)C2 (centres unmarked) [compound 53],6120,230,,
CCOC(=O)C1CCc2c(c(C(=O)N[C@H](C)C3CCCCC3)nn2Cc2ccccc2)C1 (some centres unmarked) [compound 289],880,400,,
O=C(NC1CCCc2ccccc21)c1nn(C2CCCCC2)c2c1CCCC2 (centres unmarked) [compound 183],50,6.9,,
O=C(CCc1nn(C2CCCCC2)c2c1CCCC2)N[C@@H]1C2CCC(C2)[C@@H]1CO (some centres unmarked) [compound 52],6260,4900,,
